Reference: patent US20120028359A1, “PRODUCTION PROCESS OF GENDER-SPECIFIC SERUM AND BIOMARKER USING THE SERUM” (priority 2009, published 2012)

What was measured:
[1] = tested on: myotube formed cells; assay: Lipid accumulation in myotube formed cells treated with hormone; assay type: cell-based; conditions: DMEM (phenol-red (−))/10% FBS, hormone for about 2 weeks; FIG. 5
From the text: Then, lipid accumulation levels of the cells were confirmed.

[2] = tested on: bovine MSCs; assay: MSC proliferation, cells enumerated with hematocytometer; assay type: cell-based; conditions: MSC in C-MS or CDFBS, 10 nM hormone, vs respective control
Protocol: The cultured cells were harvested by trypsin-EDTA, and subcultured in wells of 6-well plates with DMEM supplemented with FBS after washing the collected cell precipitate. Cells were cultured for a day in the supplemented medium to allow for equal attachment in the culture dish. The next day the medium was removed and replaced with DMEM supplemented with 10% FBS, MS, FS and C-MS.
MSCs were cultured in DMEM supplemented with C-MS to observe the steroidal effect on the cultured muscle cells. E2, testosterone, or a combination of E2 and testosterone (all 10 nM) were added directly to each medium. Cells were enumerated under microscopic examination using a hematocytometer.
For MSC differentiation, cells were collected from a primary culture dish and subcultured. The cells in passage one were cultured in medium supplemented with FBS, MS, FS, or […] for three days, and cell numbers in each culture were enumerated.
MSC were subcultured in C-MS or CDFBS and treated with 10 nM of E2 or testosterone, or a combination of E2 and testosterone.

[3] = tested on: C2C12 myoblast cell line; assay: C2C12 myoblast proliferation; assay type: cell-based; conditions: testosterone-treated C-MS and CDFBS
From the text: In addition, the effect of different serum and steroids on the C2Cl2 myoblast cell line was also observed. The data generated were in agreement with those of bovine MSCs.

[4] = tested on: Myogenin; assay: Real-time RT-PCR, myogenin mRNA; assay type: cell-based, bovine; conditions: hormone treatment, 10 nM, C-MS medium; FIG. 13
Protocol: (§1) Trizor™ reagent (Invitrogen) was used to extract total RNA from cells, according to the manufacturer's protocol. RNA was […] in diethylpyrocarbonate-treated water at −80° C. Concentrations of the extracted RNA samples were measured using an ND-100 spectrophotometer (NanoDrop Technologies, Wilmington, Del., USA) and the purity was checked with an Agilent 2100 bioanalyzer (Agilent Technologies, Palo Alto, Calif., USA) prior to RT-PCR. RNA was reverse-transcribed into the first stranded cDNA using Superscript-II reverse transcriptase (Invitrogen). Total RNA (1 μg in 20 μl total volume) was primed with oligo (dT) 20 primers (Bioneer, Daejeon, Korea), and reverse transcription was carried out at 42° C. for 50 min and 72° C. for 15 min. Subsequently, 2 μl of the 10× diluted cDNA product and 10 pmoles of each gene-specific primer were used to perform PCR using a 7500 real-time PCR system (Applied Biosystems, Foster City, Calif., USA). Power SYBR® Green PCR Master Mix (Applied Biosystems) was used as the fluorescence source. Primers were designed with Primer 3 software (http://frodo.wi.mit.edu) using sequence information listed at the National Center for Biotechnology Information. […]

[5] = tested on: AR; assay: Real-time RT-PCR, AR mRNA; assay type: cell-based, bovine; conditions: hormone treatment, 10 nM, C-MS medium; FIG. 13
Protocol: as §1

[6] = tested on: isolated MSCs; assay: Lipid droplets (ORO) in MSCs in adipogenic medium with C-MS plus hormone; assay type: cell-based, bovine; conditions: hormone-treated vs untreated, FIGS. 17 and 18
Protocol: The cells were cultured in adiopogenic medium treated with E2, testosterone, or E2 and testosterone. The cells were stained with ORO to check the accumulation of lipid droplets.

[7] = tested on: FAT/CD36; assay: Real-time RT-PCR, FAT/CD36 mRNA in adipogenic medium; assay type: cell-based, bovine; conditions: adipogenic medium with C-MS, hormone-treated; FIG. 19
Protocol: as §1

[8] = tested on: FAT/CD36; assay: Immunocytochemistry, FAT/CD36 protein in adipogenic medium; assay type: cell-based, bovine; conditions: adipogenic medium with C-MS, hormone-treated; FIG. 20
Protocol: Isolated MSCs were cultured in a covered glass-bottom dish and allowed to differentiate into myotubes or to transdifferentiate into ALCs under different serum conditions. Then, the culture mediun was removed and cells were rinsed with PBS. PBS rinsing was also performed between all subsequent steps. Cells were fixed with 4% formaldehyde, permeabilized by 0.2% Triton X-100 and 3-4 drops of Image-iT™ FX signal enhancer (Invitrogen) was applied. Primary antibody (mouse monoclonal IgG1 Myogenin; sc-12732, rabbit polyclonal IgG CD36 sc-9154; Santa Cruz Biotechnology, Santa Cruz Calif., USA) was added and incubated at 4° C. in a humid environment overnight, and then incubated with secondary antibody (Alexa Fluor 488 goat anti-mouse SFX kit and Alexa Fluor 488 goat anti-rabbit SFX kit; Molecular Probes, Eugene, Oreg., USA) at room temperature for 1 hour. Each cell nucleus was counterstained by […] (DAPI; Sigma-Aldrich, St. Louis Mo., USA). Immunostained cells were observed using a fluorescence microscope (Nikon).
MSCs were transdifferentiated into ALCs by switching the culture medium into adipogenic medium. To observe the effect of different sera on transdifferentiation, cells were cultured in adipogenic media supplemented with different sera for 7 days and stained with ORO. […]

SMILES | lipid accumulation level in myotube [1] | increment of cell proliferation [2] | C2C12 cell proliferation [3] | myogenin expression [4] | AR expression [5] | lipid droplets, ORO staining [6] | FAT/CD36 mRNA expression [7] | FAT/CD36 protein expression [8]
C[C@]12CC[C@H]3[C@@H](CCC4=CC(=O)CC[C@@]43C)[C@@H]1CC[C@@H]2O [testosterone] | highest in myotube of the cells treated with 17β-estradiol, and decreases in the following order of [17β-estradiol+testosterone], testosterone, and the control group that was not treated with hormone | highest in the testosterone-treated culture followed by the combination E2 and testosterone, and E2 only | markedly increased | up-regulated myogenin and AR expression significantly | up-regulated myogenin and AR expression significantly | slight increase |  | 
C[C@]12CC[C@@H]3c4ccc(O)cc4CC[C@H]3[C@@H]1CC[C@@H]2O [E2, 17β-estradiol] | highest in myotube of the cells treated with 17β-estradiol, and decreases in the following order of [17β-estradiol+testosterone], testosterone, and the control group that was not treated with hormone | highest in the testosterone-treated culture followed by the combination E2 and testosterone, and E2 only |  |  |  | slight increase | significant increase | upregulated
